Measurements from patent publication US20110236506A1, “PHARMACEUTICAL ASSOCIATION CONTAINING LIPOIC ACID AND HYDROXYCITRIC ACID AS ACTIVE INGREDIENTS” (priority 2008, published 2011).

Legend:
T-24 tumor cell line = assay: Cell proliferation and viability test (MTT / number of cells), T-24 cell line; assay type: cell-based, human; details: molecule tested alone, relative to control culture
Method: The T-24 tumor cell line is a transitional bladder carcinoma isolated from a person (O'Toole C M. et al. 1983 Nature 301: 429-30).
(§1) The tumor cell lines were cultured in monolayer at 37° C. in a humidified atmosphere (5% CO2, 95% air). The culture medium which was used is DMEM Glutamax I (Invitrogen) for the two lines, supplemented with 10% of fetal calf serum (Eurobio) and 1/10 000 IU of penicillin and streptomycin. For carrying out the experiments, the human tumor cell lines were detached from the culture flask by treatment for 10 minutes with a solution of trypsin in Hanks medium without calcium or magnesium. The cells were counted in a hemocytometer and their viability was determined using the trypan blue exclusion test.
(§2) The tumor cell lines were amplified and then seeded into 96-well microplates (MTT) or 6-well plates (cell counts) at a concentration which allowed the cells to be in the proliferation phase for the 5 days of the culture. They were incubated for 48 hours before the beginning of the treatments in the microplates containing culture medium without the test substances or the reference substances.
(§3) During phase I (test with a single active ingredient), the tumor cell lines were incubated for 5 days at 37° C. under 5% CO2 with culture medium containing one of the test substances. Each experimental condition was reproduced six times. Generally, the flasks of culture medium supplemented with serum were first of all prepared with the highest concentration of each test molecule. Each other concentration to be tested was obtained by successive dilutions in the serum-supplemented culture medium. This step was adjusted according to the particular instability or sensitivity of each drug.
In phase II of the study (test with the combination of the two active ingredients), the same conditions for preparing the media and for culturing the cells were adhered to, and the active ingredients were combined and added simultaneously to the culture medium.
(§4) The tumor cell lines were incubated with 100 μl (96-well plates) or 2 ml (6-well plates) of serum-supplemented culture medium containing the test substances or the reference substance. The culture medium of each culture well (supplemented with the test molecule(s)) was renewed every two days during the treatment.
(§5) Starting from the first day of contact, and every two days after the beginning of the contacting of the culture media containing the test substances and the reference substances at the various concentrations tested, the proliferation and the cell viability of the cells were evaluated. The cell viability was evaluated in two different ways: • directly, under an optical microscope by statistical counting (number of cells), and • indirectly, by colorimetric assay based on the degradation of tetrazolium salts by mitochondrial dehydrogenases (MIT test). The optical densities (OD) of each well were then read with a microplate reader set at the appropriate wavelength.
(§6) For each active ingredient, each concentration tested and each combination, three cell viability values were measured and corrected, in particular by means of the calibration ranges for the optical reading instrument.
(§7) The mean of the three cell viability measurement values was then divided by the mean of the measurements of viability carried out in parallel in a control culture free of active ingredients.

HT-29 tumor cell line = assay: Cell proliferation and viability test (MTT / number of cells), HT-29 cell line; assay type: cell-based, human; details: molecule tested alone, relative to control culture
Method: The HT-29 tumor cell line was isolated in 1964 from a primary colonic adenocarcinoma in a person (Fogh J. et al. 1977 J. Nat. Cancer. Inst. 59: 221-6).
as §1, §2
as §3, with “drug. […]” for “drug.”
as §4, §5, §6, §7

[1] = tested on: HT-29 and T-24 cell lines; assay: Cell viability tests, observations stated jointly for the two cell lines; assay type: cell-based; details: human, 5 days, 4 μmol.l−1
Method: as §1, with “test. […]” for “test.”
as §5

[2] = tested on: MBT-2 murine bladder tumors; assay: Antitumor activity tests on C3H mice with implanted MBT-2 tumors; assay type: in vivo
Method: The compositions described hereinafter were tested against MBT-2 murine bladder tumors implanted in syngeneic C3H mice. These mice develop a tumor of 7 to 10 mm in diameter in approximately 20 days. The pharmaceutical combinations according to the invention and also the control compositions were administered intraperitoneally, for 21 days, starting from the 19th day after tumor inoculation. The change in tumor development was monitored by measuring the size of the tumors and monitoring the survival of the animals during the experiment.
The mice were randomized in groups of 18 individuals, the tumor of which is palpable (size of approximately 10 mm, after approximately 19 days of tumor development), according to the size of the tumor and the weight of the animals. For each animal, the maximum diameter of each tumor was measured with a Vernier caliper in order to determine the tumor volume. […]
The treatment with 5-FU (positive control) was administered intraperitoneally with a dose of 10 mg/kg once a day for 4 days. The mice treated with 5-FU were monitored in the same way as the other mice.
Every five days, the evolution of the tumor was monitored by various measurements: weight of the animals, tumor size (caliper rule), mortality. […]

## calcium hydroxycitrate
T-24 tumor cell line; 0.2 μmol·l−1
  Ratio of live T-24 cells after 72 hours, MTT: 0.725
  Ratio of live T-24 cells after 72 hours, Number of cells: 0.845
T-24 tumor cell line; 3 μmol·l−1
  Ratio of live T-24 cells after 72 hours, MTT: 0.488
  Ratio of live T-24 cells after 72 hours, Number of cells: 0.643
T-24 tumor cell line; 45 μmol·l−1
  Ratio of live T-24 cells after 72 hours, MTT: 0.359
  Ratio of live T-24 cells after 72 hours, Number of cells: 0.450
HT-29 tumor cell line; 10 μmol·l−1
  Ratio of live HT-29 cells after 72 hours, MTT: 0.743
  Ratio of live HT-29 cells after 72 hours, Number of cells: 0.777
HT-29 tumor cell line; 100 μmol·l−1
  Ratio of live HT-29 cells after 72 hours, MTT: 0.519
  Ratio of live HT-29 cells after 72 hours, Number of cells: 0.557
HT-29 tumor cell line; 500 μmol·l−1
  Ratio of live HT-29 cells after 72 hours, MTT: 0.376
  Ratio of live HT-29 cells after 72 hours, Number of cells: 0.374

## O=C(O)CCCCC1CCSS1 (stereo not drawn) [Lipoic acid, alpha-lipoic acid]
T-24 tumor cell line; 0.1 μmol·l−1
  Ratio of live T-24 cells after 72 hours, MTT: 0.898
  Ratio of live T-24 cells after 72 hours, Number of cells: 0.940
T-24 tumor cell line; 1 μmol·l−1
  Ratio of live T-24 cells after 72 hours, MTT: 0.690
  Ratio of live T-24 cells after 72 hours, Number of cells: 0.772
T-24 tumor cell line; 10 μmol·l−1
  Ratio of live T-24 cells after 72 hours, MTT: 0.534
  Ratio of live T-24 cells after 72 hours, Number of cells: 0.601
HT-29 tumor cell line; 0.1 μmol·l−1
  Ratio of live HT-29 cells after 72 hours, MTT: 0.807
  Ratio of live HT-29 cells after 72 hours, Number of cells: 0.853
HT-29 tumor cell line; 1 μmol·l−1
  Ratio of live HT-29 cells after 72 hours, MTT: 0.55
  Ratio of live HT-29 cells after 72 hours, Number of cells: 0.583
HT-29 tumor cell line; 10 μmol·l−1
  Ratio of live HT-29 cells after 72 hours, MTT: 0.452
  Ratio of live HT-29 cells after 72 hours, Number of cells: 0.441
[1]
  cell mortality: ≤ 50%

## O=c1[nH]cc(F)c(=O)[nH]1 [5-FU, 5-fluorouracil]
[2]; FIG. 4B, groups of 18 mice
  days of implantation after which 50% of the mice are still alive: 39 days
[2]; controls: 50% alive after 27 days
  increase in survival compared with the control mice: 12 days
